# Results from PMC10638507 (Acta Pharmaceutica Sinica. B, 2023).
# Tests used:
# Type in all cases: biochemical, Paris polyphylla var. yunnanensis
# [1] = system: UGT80A41; test: initial rates of glucoside formation, UPLC-MS/MS, Michaelis-Menten fit; conditions: read-out: apparent KM; 2 mmol/L UDP-glucose, 50 mmol/L Tris-HCl pH 8.0, 37 °C, 30 min
# [2] = system: UGT80A40; test: as above; conditions: read-out: apparent KM; 2 mmol/L UDP-glucose, 50 mmol/L Tris-HCl pH 8.0, 37 °C, 30 min
# [3] = system: UGT73CE1; test: initial rates of rhamnoside formation, UPLC-MS/MS, Michaelis-Menten fit; conditions: read-out: apparent KM; 1.5 mmol/L UDP-rhamnose, 50 mmol/L Tris-HCl pH 8.0, 37 °C, 30 min
SMILES,Km [1] [µM],Km [2] [µM],Km [3] [µM]
"C[C@@H]1CC[C@@]2(OC1)O[C@H]1C[C@H]3[C@@H]4CC=C5C[C@@H](O)CC[C@]5(C)[C@H]4CC[C@]3(C)[C@H]1[C@@H]2C [compound 1, diosgenin]",5.9 ± 0.5,6.1 ± 0.7,
"C[C@@H]1CC[C@@]2(OC1)O[C@H]1C[C@H]3[C@@H]4CC=C5C[C@@H](O[C@@H]6O[C@H](CO)[C@@H](O)[C@H](O)[C@H]6O)CC[C@]5(C)[C@H]4CC[C@]3(C)[C@H]1[C@@H]2C [compound 3, trillin]",,,7.1 ± 2.1
